The source of these data is US7081447B2, “Organic compounds with biological activity as thrombin inhibitors and use thereof” (Novel Science International GmbH, priority 2001, dated 2006).

The first assay has as its target T1, thrombin (Homo sapiens, UniProt P00734).
Test: not given
The conditions noted are these: cited from earlier work.
By Ki is commonly meant the equilibrium dissociation constant of an inhibitor or competing ligand from its target. Turning to H-D-Phe-Pro-Arg-H, the Ki was 70 nM.

Another assay concerns the target T1, thrombin. Nature of the assay: in vitro inhibition of thrombin amidase activity (fluorogenic substrate Tos-Gly-Pro-Arg-(7-amino-4-methylcoumarin)). The class given is biochemical. Further details: with 10 μL of human thrombin solution. The conditions noted are these: peptide concentration of 250 nM. As to the method: (§1) The values of the inhibition constant Ki were obtained from assays, in which thrombin hydrolyzes the fluorogenic substrate Tos-Gly-Pro-Arg-(7-amino-4-methylcoumarin). The assays were performed in 30 μL of assay buffer (0.05 M Tris, 0.1 M NaCl, 0.1% PEG 8000, pH 7.6) with 10 μL of human thrombin solution (10^−5 U/μL in assay buffer) and 140 μL of a solution of the fluorogenic substrate in assay buffer at a concentration v of 30 μM. Solutions of the test compound (10 μL) were added at various concentrations. The rates of substrate hydrolysis were measured by monitoring the reactions of 7-amino-4-methylcoumarin release at 460 nm with use of AMC. The reaction reached a steady state within 3 minutes after thrombin was combined with the substrate and an inhibitor. The kinetic data of the competitive inhibition (Km, Vmax, and Ki) were analyzed with the aid of the Hanes plot (A/V vs. A at various i values).
as §1, with “concentration” for “concentration v”, “using” for “with the aid of”, “values for A; here, A is the substrate concentration and V the reaction rate).” for “i values).”
as §1, with “conducted” for “performed”, “concentration” for “concentration v”, “using” for “with the aid of”, “values for A; here, A is the substrate concentration and V the reaction rate).” for “i values).”
Consider “N-Acetyl-L-Pnp-D-Cha-L-Aze-D-Tyr-L-Har amide [Example 86]”, for which the “Thrombin inhibition (thrombin amidase activity)” value (shortened to “Thrombin inhibition”) was 72%.

Take “N-Acetyl-L-Ppd-D-Cha-L-Aze-D-Tyr-L-Har amide [Example 81]”: the “Thrombin inhibition” value turned out to be 76%.

On to “N-Acetyl-L-Tea-D-Cha-L-Aze-D-Tyr-L-Har amide [Example 82]”, for which the “Thrombin inhibition” value is 74%.

Take “N-Acetyl-L-Cha-D-Cha-L-Aze-D-Tyr-L-Har amide [Example 85]”: the “Thrombin inhibition” value came out at 90%.

With “N-Acetyl-L-Nle-D-Cha-L-Aze-D-Tyr-L-Har amide [Example 84]”, the “Thrombin inhibition” value is listed as 89%.

For the compound “N-Acetyl-L-Dcp-D-Cha-L-Aze-D-Tyr-L-Har amide [Example 78]”, the “Thrombin inhibition” value amounted to 75%.

The same assay, now with this note: peptide concentration of 1 μM.
As to “N-Acetyl-L-Ser-D-Glu-L-Cha-D-Pro-D-Tyr-L-Arg amide [Example 23]”, the “Thrombin inhibition” value is recorded as 21%.

In the case of “N-Acetyl-L-Ala-L-Cha-D-Pro-D-Tyr-L-Arg amide [Example 28]”, the “Thrombin inhibition” value is 44%.

“N-Acetyl-L-Asp-L-Ser-L-Cha-D-Pro-D-Tyr-L-Arg amide [Example 10]”: the “Thrombin inhibition” value is reported as 51%.

For “N-Acetyl-D-Gln-D-His-L-Cha-D-Pro-D-Tyr-L-Arg amide [Example 25]”, the “Thrombin inhibition” value stood at 59%.

“N-Acetyl-L-Trp-L-Cha-D-Pro-D-Tyr-L-Arg amide [Example 33]”: the “Thrombin inhibition” value amounted to 63%.

Turning to “N-Acetyl-L-Ala-D-Cha-L-Pro-D-Tyr-L-Har amide [Example 56]”, the “Thrombin inhibition” value is reported as 56%.

The assay is the same for the next values; noted with them: peptide concentration of 1 μM; 1 µM.
For the compound “N-Acetyl-D-Tyr-L-Cha-D-Pro-D-Tyr-L-Arg amide [Example 70]”, the “Thrombin inhibition” value is 47%.

For the compound “N-Acetyl-L-Ser-L-Ala-L-Cha-D-Pro-D-Tyr-L-Arg amide [Example 17]”, the “Thrombin inhibition” value is 48%.

On to “N-Acetyl-L-Tyr-L-Cit-L-Cha-D-Pro-D-Tyr-L-Arg amide [Example 15]”, for which the “Thrombin inhibition” value stood at 51%.

For the compound “N-Acetyl-L-Tyr-L-Cit-L-Cha-D-Pro-D-Tyr-L-Arg amide [Example 45]”, the “Thrombin inhibition” value was determined as 55%.

As to “N-Acetyl-L-Tyr-L-Cit-L-Cha-D-Pro-D-Tyr-L-Arg amide [Example 63]”, the “Thrombin inhibition” value turned out to be 55%.

As to “N-Acetyl-D-Val-L-Cha-D-Pro-D-Tyr-L-Arg amide [Example 12]”, the “Thrombin inhibition” value came to 46%.

In the case of “N-Acetyl-D-Val-L-Cha-D-Pro-D-Tyr-L-Arg amide [Example 32]”, the “Thrombin inhibition” value was found to be 45%.

In the case of “N-Acetyl-D-Val-L-Cha-D-Pro-D-Tyr-L-Arg amide [Example 65]”, the “Thrombin inhibition” value is listed as 45%.

As to “N-Acetyl-L-Ser-L-Ser-L-Cha-D-Pro-D-Tyr-L-Arg amide [Example 13]”, the “Thrombin inhibition” value worked out at 49%.

“N-Acetyl-D-Val-L-Cha-D-Pro-D-Tyr-L-Arg amide [Example 47]”: the “Thrombin inhibition” value came to 45%.

As to “N-Acetyl-D-Tyr-L-Cha-D-Pro-D-Tyr-L-Arg amide [Example 37]”, the “Thrombin inhibition” value was found to be 47%.

As for “N-Acetyl-L-Arg-L-Cha-D-Pro-D-Tyr-L-Arg amide [Example 38]”, the “Thrombin inhibition” value was determined as 47%.

In the case of “N-Acetyl-L-Ser-L-Ala-L-Cha-D-Pro-D-Tyr-L-Arg amide [Example 49]”, the “Thrombin inhibition” value stood at 47%.

As to “N-Acetyl-D-Lys-L-Nle-L-Cha-D-Pro-D-Tyr-L-Arg amide [Example 36]”, the “Thrombin inhibition” value is 48%.

Consider “N-Acetyl-D-Tyr-L-Cha-D-Pro-D-Tyr-L-Arg amide [Example 24]”, for which the “Thrombin inhibition” value worked out at 27%.

The same assay, now with this note: peptide concentration of 25 μM.
Broadly, the inhibition is the change of the read-out against control, counted positive when it falls. The compound `[H]/N=C(\N)NCCCC(NC(C)=O)C(=O)NC(CC1CCCCC1)C(=O)NC(CCCC)C(=O)NC(CC1CCCCC1)C(=O)NC(CCC(N)=O)C(N)=O` [Example 1, N-Acetyl-L-Arg-L-Cha-L-Nle-L-Cha-D-Gln amide] showed an inhibition at 25 µM of 66%.
